{"source": "patent US20260256792A1", "about": "“TREATMENT OF CHRONIC SPONTANEOUS URTICARIA BY ADMINISTERING (R)-2-[3-[4-AMINO-3-(2-FLUORO-4-PHENOXY-PHENYL)PYRAZOLO[3,4-D]PYRIMIDIN-1-YL]PIPERIDINE-1-CARBONYL]-4-METHYL-4-[4-(OXETAN-3-YL)PIPERAZIN-1-YL]PENT-2-ENENITRILE” (priority 2023, published 2026)", "key": {"[1]": {"tested_on": "moderate-to-severe chronic spontaneous urticaria (CSU)", "assay": "Phase 2 CSU study: Patient Global Impression of Change (PGIC)", "type": "in vivo, human", "details": "for PGIC category No change, patients / PGIC category Very much better, patients / PGIC category Very much worse, patients / PGIC Mean (SD) / PGIC Median / PGIC category A little better, patients / PGIC category A little worse, patients / PGIC category Moderately better, patients / PGIC category Moderately worse, patients: omalizumab-naïve population; for PGIC LS Mean (SE) / PGIC LS Mean Diff vs. placebo (95% CI): omalizumab-naïve, ANCOVA", "excerpt": "The study comprises a 12 week, randomized, double-blind, placebo-controlled, multi-center, dose-ranging efficacy and safety phase, followed by a 40 week open label extension (OLE) phase (see FIG. 1).\nThe study consists of three phases and an optional OLE phase.\nThe PGIS is a 1-item measure that asks participants to provide a self-assessment of their overall CSU severity for the past week on a 4 point scale. Response choices are: “None”, “Mild”, “Moderate” and “Severe”. The PGIC is a 1-item measure that asks the participant to provide a self-assessment of overall change in their CSU since the participant started taking the study medication on a 7-point scale. The response options range from “Very Much Better” to “Very Much Worse.” Patients were to complete questionnaires for the 2 items during their site visit."}, "other TEC family members": {"tested_on": "other TEC family members", "details": "cited from earlier work"}, "[2]": {"tested_on": "rat collagen-induced arthritis model", "details": "cited from earlier work"}, "[3]": {"tested_on": "mouse model of immune thrombocytopenia", "details": "mouse ITP model; cited from earlier work"}, "CYP3A": {"tested_on": "CYP3A", "details": "cited from earlier work"}, "healthy volunteers": {"tested_on": "healthy volunteers", "details": "cited from earlier work"}, "total serum IgE or IgG": {"tested_on": "total serum IgE or IgG", "assay": "Phase 2 CSU study: total serum immunoglobulins (IgE, IgG, IgM)", "details": "for Total IgE (IU/mL) Median Percent Change from Baseline / Total IgG (g/L) Median Percent Change from Baseline: Baseline to Week 12", "method": "Changes in disease-relevant biomarkers were assessed over the course of the 12-Week double-blind phase (see FIG. 40). Biomarkers included sMRGPRX2, IgE anti-TPO, IgG anti-FCεRI, IL-31, IgM, IgE, IgG, IgG anti-IgE, and white blood cell levels."}}}
{"smiles": "CC(C)(C=C(C#N)C(=O)N1CCC[C@@H](n2nc(-c3ccc(Oc4ccccc4)cc3F)c3c(N)ncnc32)C1)N1CCN(C2COC2)CC1", "note": "[rilzabrutinib, (R)-2-[3-[4-amino-3-(2-fluoro-4-phenoxy-phenyl)pyrazolo[3,4-d]pyrimidin-1-yl]piperidine-1-carbonyl]-4-methyl-4-[4-(oxetan-3-yl)piperazin-1-yl]pent-2-enenitrile]", "values": [{"measurement": "PGIC category No change, patients", "setting": "[1]; Week 8, 400 mg BID", "value": "6 (18.2)"}, {"measurement": "PGIC category Very much better, patients", "setting": "[1]; Week 8, 400 mg BID", "value": "13 (39.4)"}, {"measurement": "PGIC category Very much worse, patients", "setting": "[1]; Week 8, 400 mg BID", "value": "1 (3.0)"}, {"measurement": "PGIC LS Mean (SE)", "setting": "[1]; Week 8, 400 mg BID", "value": 1.43}, {"measurement": "PGIC LS Mean Diff vs. placebo (95% CI)", "setting": "[1]; Week 8, 400 mg BID", "value": "−0.41"}, {"measurement": "PGIC Mean (SD)", "setting": "[1]; Week 8, 400 mg QPM", "value": 2.21}, {"measurement": "PGIC Median", "setting": "[1]; Week 8, 400 mg QPM", "value": 2.00}, {"measurement": "PGIC category A little better, patients", "setting": "[1]; Week 8, 400 mg QPM", "value": "9 (27.3)"}, {"measurement": "PGIC category A little worse, patients", "setting": "[1]; Week 8, 400 mg QPM", "value": "2 (6.1)"}, {"measurement": "PGIC category Moderately better, patients", "setting": "[1]; Week 8, 400 mg QPM", "value": "6 (18.2)"}, {"measurement": "PGIC category Moderately worse, patients", "setting": "[1]; Week 8, 400 mg QPM", "value": "1 (3.0)"}, {"measurement": "PGIC category No change, patients", "setting": "[1]; Week 8, 400 mg QPM", "value": "10 (30.3)"}, {"measurement": "PGIC category Very much better, patients", "setting": "[1]; Week 8, 400 mg QPM", "value": "4 (12.1)"}, {"measurement": "PGIC category Very much worse, patients", "setting": "[1]; Week 8, 400 mg QPM", "value": "1 (3.0)"}, {"measurement": "PGIC LS Mean (SE)", "setting": "[1]; Week 8, 400 mg QPM", "value": 2.10}, {"measurement": "PGIC LS Mean Diff vs. placebo (95% CI)", "setting": "[1]; Week 8, 400 mg QPM", "value": 0.27}, {"measurement": "PGIC Mean (SD)", "setting": "[1]; Week 8, 400 mg TID", "value": 0.90}, {"measurement": "PGIC Median", "setting": "[1]; Week 8, 400 mg TID", "value": 1.00}, {"measurement": "PGIC category A little better, patients", "setting": "[1]; Week 8, 400 mg TID", "value": "2 (6.7)"}, {"measurement": "PGIC category A little worse, patients", "setting": "[1]; Week 8, 400 mg TID", "value": "1 (3.3)"}, {"measurement": "PGIC category Moderately better, patients", "setting": "[1]; Week 8, 400 mg TID", "value": "10 (33.3)"}, {"measurement": "PGIC category Moderately worse, patients", "setting": "[1]; Week 8, 400 mg TID", "value": 0}, {"measurement": "PGIC category No change, patients", "setting": "[1]; Week 8, 400 mg TID", "value": "3 (10.0)"}, {"measurement": "PGIC category Very much better, patients", "setting": "[1]; Week 8, 400 mg TID", "value": "14 (46.7)"}, {"measurement": "PGIC category Very much worse, patients", "setting": "[1]; Week 8, 400 mg TID", "value": 0}, {"measurement": "PGIC LS Mean (SE)", "setting": "[1]; Week 8, 400 mg TID", "value": 0.98}, {"measurement": "PGIC LS Mean Diff vs. placebo (95% CI)", "setting": "[1]; Week 8, 400 mg TID", "value": "−0.86"}, {"measurement": "PGIC Mean (SD)", "setting": "[1]; Week 12, 400 mg BID", "value": 1.03}, {"measurement": "PGIC Median", "setting": "[1]; Week 12, 400 mg BID", "value": 0.50}, {"measurement": "PGIC category A little better, patients", "setting": "[1]; Week 12, 400 mg BID", "value": "1 (3.3)"}, {"measurement": "PGIC category A little worse, patients", "setting": "[1]; Week 12, 400 mg BID", "value": "1 (3.3)"}, {"measurement": "PGIC category Moderately better, patients", "setting": "[1]; Week 12, 400 mg BID", "value": "8 (26.7)"}, {"measurement": "PGIC category Moderately worse, patients", "setting": "[1]; Week 12, 400 mg BID", "value": "1 (3.3)"}, {"measurement": "PGIC category No change, patients", "setting": "[1]; Week 12, 400 mg BID", "value": "4 (13.3)"}, {"measurement": "PGIC category Very much better, patients", "setting": "[1]; Week 12, 400 mg BID", "value": "15 (50.0)"}, {"measurement": "PGIC category Very much worse, patients", "setting": "[1]; Week 12, 400 mg BID", "value": 0}, {"measurement": "PGIC LS Mean (SE)", "setting": "[1]; Week 12, 400 mg BID", "value": 1.17}, {"measurement": "PGIC LS Mean Diff vs. placebo (95% CI)", "setting": "[1]; Week 12, 400 mg BID", "value": "−0.46"}, {"measurement": "PGIC Mean (SD)", "setting": "[1]; Week 12, 400 mg QPM", "value": 2.12}, {"measurement": "PGIC Median", "setting": "[1]; Week 12, 400 mg QPM", "value": 2.00}, {"measurement": "PGIC category A little better, patients", "setting": "[1]; Week 12, 400 mg QPM", "value": "7 (20.6)"}, {"measurement": "PGIC category A little worse, patients", "setting": "[1]; Week 12, 400 mg QPM", "value": "2 (5.9)"}, {"measurement": "PGIC category Moderately better, patients", "setting": "[1]; Week 12, 400 mg QPM", "value": "6 (17.6)"}, {"measurement": "PGIC category Moderately worse, patients", "setting": "[1]; Week 12, 400 mg QPM", "value": "1 (2.9)"}, {"measurement": "PGIC category No change, patients", "setting": "[1]; Week 12, 400 mg QPM", "value": "11 (32.4)"}, {"measurement": "PGIC category Very much better, patients", "setting": "[1]; Week 12, 400 mg QPM", "value": "6 (17.6)"}, {"measurement": "PGIC category Very much worse, patients", "setting": "[1]; Week 12, 400 mg QPM", "value": "1 (2.9)"}, {"measurement": "PGIC LS Mean (SE)", "setting": "[1]; Week 12, 400 mg QPM", "value": 2.00}, {"measurement": "PGIC LS Mean Diff vs. placebo (95% CI)", "setting": "[1]; Week 12, 400 mg QPM", "value": 0.38}, {"measurement": "PGIC Mean (SD)", "setting": "[1]; Week 12, 400 mg TID", "value": 0.97}, {"measurement": "PGIC Median", "setting": "[1]; Week 12, 400 mg TID", "value": 0.00}, {"measurement": "PGIC category A little better, patients", "setting": "[1]; Week 12, 400 mg TID", "value": "4 (12.9)"}, {"measurement": "PGIC category A little worse, patients", "setting": "[1]; Week 12, 400 mg TID", "value": "2 (6.5)"}, {"measurement": "PGIC category Moderately better, patients", "setting": "[1]; Week 12, 400 mg TID", "value": "5 (16.1)"}, {"measurement": "PGIC category Moderately worse, patients", "setting": "[1]; Week 12, 400 mg TID", "value": 0}, {"measurement": "PGIC category No change, patients", "setting": "[1]; Week 12, 400 mg TID", "value": "3 (9.7)"}, {"measurement": "PGIC category Very much better, patients", "setting": "[1]; Week 12, 400 mg TID", "value": "17 (54.8)"}, {"measurement": "PGIC category Very much worse, patients", "setting": "[1]; Week 12, 400 mg TID", "value": 0}, {"measurement": "PGIC LS Mean (SE)", "setting": "[1]; Week 12, 400 mg TID", "value": 0.98}, {"measurement": "PGIC LS Mean Diff vs. placebo (95% CI)", "setting": "[1]; Week 12, 400 mg TID", "value": "−0.64"}, {"measurement": "binding over time", "setting": "other TEC family members", "value": "decayed rapidly over time"}, {"measurement": "rat collagen-induced arthritis", "setting": "[2]", "value": "full disease reversal"}, {"measurement": "platelet loss", "setting": "[3]", "value": "reduction"}, {"measurement": "CYP3A inhibition", "setting": "CYP3A", "value": "mild inhibitor"}, {"measurement": "most commonly reported adverse events", "setting": "healthy volunteers", "value": "gastrointestinal adverse events, including nausea/vomiting and diarrhea"}, {"measurement": "serious adverse events or deaths", "setting": "healthy volunteers", "value": "No serious adverse events or deaths"}, {"measurement": "change in total serum IgE or IgG levels", "setting": "total serum IgE or IgG; 12-week double-blind phase", "value": "not associated with a change"}, {"measurement": "Total IgE (IU/mL) Median Percent Change from Baseline", "setting": "total serum IgE or IgG; 400 mg BID", "value": 3.9, "unit": "%"}, {"measurement": "Total IgG (g/L) Median Percent Change from Baseline", "setting": "total serum IgE or IgG; 400 mg BID", "value": 0.96, "unit": "%"}, {"measurement": "Total IgE (IU/mL) Median Percent Change from Baseline", "setting": "total serum IgE or IgG; 400 mg QPM", "value": 3.4, "unit": "%"}, {"measurement": "Total IgG (g/L) Median Percent Change from Baseline", "setting": "total serum IgE or IgG; 400 mg QPM", "value": "−1.99", "unit": "%"}, {"measurement": "Total IgE (IU/mL) Median Percent Change from Baseline", "setting": "total serum IgE or IgG; 400 mg TID", "value": 4.1, "unit": "%"}, {"measurement": "Total IgG (g/L) Median Percent Change from Baseline", "setting": "total serum IgE or IgG; 400 mg TID", "value": 0.24, "unit": "%"}]}
